Experimental data published in a melting point compilation (Tetko et al.; mined from patent text by program, amines drawn as free bases though some values may be those of a salt).

| melting point [°C] | Structure (SMILES) |
| --- | --- |
| 137 to 140 | O=C(Cn1ccnc1)CS(=O)(=O)c1ccccc1 |
| 146 to 150 | Cc1ccc(-c2ccc3c(c2)C=C(C(=O)N[C@H]2CC[C@H](CN(C)C4CCN(C(=O)OC(C)(C)C)CC4)CC2)CCO3)cc1 |
| 211 to 212 | CCOC(=O)C1=Cc2cc(C#N)ccc2NC1C(F)(F)F (stereo unspecified) |
| 145 to 148 | CCCCNC(=O)NS(=O)(=O)c1ccccc1-c1ccc(C(=O)OC)o1 |
| 88 to 91 | O=C1N=NC(=O)N1c1c(F)c(F)c(F)c(F)c1F |
| 177 to 178 | COCC(=O)Nc1ccc(-c2ccncc2)cc1 |
| 151 to 152 | Cc1nc(-c2cccc(Nc3ccc(I)cc3N)c2)cs1 |
| 102 to 103 | O=C(O)C(=O)c1ccc(OCCOc2ccccc2)cc1 |
| 108 to 110 | O=C(CCc1cccc(F)c1F)c1cnc2sc3c(n12)CCCCC3 |
| 281 to 282 | O=c1nc(NCc2ccc(Cl)cc2)n2c3c1cnn3C(c1cccc(C(F)(F)F)c1)=CC2 |
| 215 | Cc1nc(NC(=O)c2cnn3c(C(F)(F)F)cc(-c4ccc(C(F)(F)F)cc4)nc23)sc1S(=O)(=O)NC(CO)CO |
| 146 to 148 | CCOP(=O)(/C=C/c1cn(-c2ccccc2)nc1OCc1ccc(OCc2nc(-c3ccc(C(N)=O)cc3)oc2C)c(OC)c1)OCC |
| 111 to 112 | CCCc1c(OCCCCCC(=O)c2ccc3cc(OC)c(OC)cc3c2)ccc(C(=O)OC)c1O |
| 173 to 175 | O=C1N(Cc2ccc3c(c2)OCCO3)c2ccccc2C12COc1cc3c(cc12)CCO3 (stereo unspecified) |
| 64 to 65 | N#CC=Cc1ccc(F)cc1 |
| 115 to 118 | Cc1cccc(C)c1N(C(C)C(=O)NN)S(C)(=O)=O (stereo unspecified) |
| 159 | CCOC(=O)C1=C(N)NC(c2ccccc2)=CC1c1ccccc1 (stereo unspecified) |
| 72 to 74 | O=C1N(CC2CCCO2)c2ccccc2C12COc1cc(O)ccc12 (stereo unspecified) |

| melting point [°C] | Structure (SMILES) |
| --- | --- |
| 91 to 92 | Nc1nc2c(ncn2C2CC(CO)C2CO)c(=O)[nH]1 (stereo unspecified) |
| 123 to 125 | COc1ccc(CCNC(=O)N(OC(C)=O)C(C)(C)C)cc1OC |
| 107 to 111 | C[C@@H](NC(=O)c1sc(-c2ccc(Cl)cc2)cc1N)[C@](O)(Cn1cncn1)c1ccc(F)cc1F |
| 133 to 136 | CC(C)(O)C1C(=O)N2C(C(=O)OCc3ccccc3)=C(Sc3ccccc3)CC12 (stereo unspecified) |
| 162 to 164 | O=c1c(Br)c(CCC2CC2)nc2ccccn12 |
| 120 | COc1ccc(N2CCN(CCn3c(=NC(=O)C(F)(F)F)sc4cc(C(F)(F)F)ccc43)CC2)cc1 |
| 67 to 69 | CCOC(=O)C(NC(=O)c1ccc(OC)cc1)C(C)=O (stereo unspecified) |
| 90 to 93 | CN1CCC(OC(=O)Cc2cnn(-c3ccccc3)c2-c2ccc(Cl)cc2)CC1 |
| 164 to 165 | COC(=O)COc1ccc(C(=O)CN2CCN(c3ccncc3)CC2=O)cc1 |
| > 280 | O=C(NCc1cc(Br)cc2[nH]c(=O)c(=O)[nH]c12)C(O)c1ccccc1 (stereo unspecified) |
| > 320 | O=C(Nc1nc2ccc(Cl)cc2s1)c1ccc2cccnc2c1O |
| 74 to 75 | CCCN(CCC)C(=O)CNc1ccnc(-c2ccccc2)n1 |
| 164 to 166 | CC(C)C(NS(=O)(=O)c1ccc(-c2ccccc2)cc1)C(=O)O (stereo unspecified) |
| 128 to 130 | CCOC(=O)COc1ccc(C(=O)Nc2ccccc2S(=O)c2ccccc2C#N)cc1 (stereo unspecified) |
| 122 to 124 | COC(=O)C1=Cc2cccc(C=O)c2OCC1 |
| 102 to 104 | COC(=S)c1cc(N)cc(N)c1C |
| 238 to 240 | COC(=O)c1cccc(Cn2c(=O)c(=O)n(Cc3cccc(C(=O)O)c3)c3ccc([N+](=O)[O-])cc32)c1 |

Further lines, the compound ahead of its results:

| Structure (SMILES) | melting point [°C] |
| --- | --- |
| COC(=O)c1c(C)[nH]c(C)c1C1=CC(=O)c2cccc(O)c2C1=O | 98 to 99 |
| Cc1c(C)n(CC=CCl)c2c(OCc3ccc(F)cc3)nncc12 | 110 to 115 |
| O=S(=O)(c1nc2c([nH]1)-c1ccc(F)cc1Oc1ccccc1-2)C(F)(F)C(F)F | 171 to 173 |
| Nc1nc2c(s1)CCN(CC1=Cc3ccccc3CC1)CC2 | 158 to 160 |
| CS(=O)(=O)c1ccc(C(=O)C(=O)c2ccc(F)cc2)cc1 | 174 to 175 |
| CCCCCOc1ccc(C(=O)OC(C)C(C)OC(=O)c2ccc(OCCCCC)cc2)cc1 (stereo unspecified) | 52 |
| COc1cc(-c2[nH]c3ccc(OCc4ccccc4)cc3c2C)ccc1OCc1ccccc1 | 155 to 158 |
| CC(Cn1nccn1)n1nnc2cc3c(=O)n(C(C)Cn4ncnn4)nnc3cc2c1=O (stereo unspecified) | 139 to 140 |
| CCCOC(=O)CCC(=O)c1ccc(-c2ccccc2F)cc1 | 53 to 54 |
| CCOC(=O)CC(=O)c1cc(F)c(F)cc1F | 57 to 59 |
| CC(C)c1ncc(CN2C(=O)C3(COc4cc5c(cc43)OCO5)c3cccc(C(F)(F)F)c32)s1 (stereo unspecified) | 101 to 103 |
| Cc1nc(Cl)c(C#N)nc1C | 83 to 85 |
| O=c1c(-c2ccc(Cl)cc2)nc2ccccc2n1CC(F)F | 133 to 136 |
| CC(=O)N1CCN(c2ccc(-c3cnc4[nH]cc(C(=O)C5(C)CCCCC5)c4n3)cc2)CC1 | 278 to 285 |
| COc1ccc(-c2ccc3c(=O)[nH]c(=O)[nH]c3n2)cc1COC(=O)C(C)(C)C | 260 to 266 |
| CCCOC(=O)CCc1cc(S(C)(=O)=O)cc(-c2nc(=O)c3ccc(Cl)cc3s2)n1 | 235 to 236 |
| Cc1ccnc(CSc2nc3ccccc3c(=O)n2-c2ccccc2)c1 | 145 to 150 |
| O=C(NCC(F)(F)F)C1(CCCc2ccccc2)c2ccccc2-c2ccccc21 | 86 to 88 |
| N#Cc1cc(F)cc(-c2cc([N+](=O)[O-])c3c(c2)C2(CCCCC2)C(=O)N3)c1 | 196 |
| COc1ccc(CCc2nccn3c(Br)cc(Br)c23)cc1 | 75 to 76 |
| CN(C)C(=O)Cn1c(-c2ccc(Br)cc2)nc2cccnc21 | 224 to 225 |

| Structure (SMILES) | melting point [°C] |
| --- | --- |
| O=c1nc(-c2ccc([N+](=O)[O-])cc2)oc2ccccc12 | 249 to 251 |
| O=C(c1ccn2c1CSC2c1cccnc1)c1c[nH]c2cc(Br)ccc12 (stereo unspecified) | 265 |
| CCOP(=O)(CC(Cc1ccccc1)NS(=O)(=O)c1ccc(C)cc1)OCC (stereo unspecified) | 86 to 89 |
| COc1c2c(c(OC)c(OC)c1OC)CCC(CCO)CC2 | 64 to 66 |
| COCc1cc(OCc2ccccc2)c2nc(C)c(C)n2c1 | 107 |
| CC(NC(=O)c1sc2ccc(C(F)(F)F)cc2c1O)=C(c1ccccc1)c1ccccc1 | 155 to 160 |
| COc1cc(C)c(/C=C/c2nc3c([nH]2)c(=O)n(C)c(=O)n3C)cc1C | > 280 |
| COc1ccccc1C1(O)CCN(C2CCN(C(=O)c3cc(C)cc(C)c3)C(Cc3ccccc3)C2)CC1 (stereo unspecified) | 213 |
| COc1ccc(CN2C=CC=C3C2=Nc2cc(C(F)(F)F)ccc2S(=O)(=O)N3C)cc1 | 142 to 143 |
| Fc1c(Cl)cccc1COc1cccnc1NC(=S)Nc1ccc(Cl)cc1 | 174 to 176 |
| Cc1ccccc1-c1ccc(C=O)cn1 | 82 to 84 |
| CCn1c(=O)n(CCCCC(C)(C)O)c(=O)c2[nH]cnc21 | 112 to 114 |
| COc1cc(N)c2nccc(C)c2c1F | 126 to 128 |
| COc1cc(NC(=O)c2ccccc2Cl)ccc1C(=O)N1CCCC(OCCNS(=O)(=O)C(F)(F)F)c2cc(Cl)ccc21 (stereo unspecified) | 140 to 142 |
| CN1CCc2c(cccc2NC(=O)c2ccccc2I)C1 | 215 to 216 |
| CCOC(=O)C(=O)CC(=O)c1cn(Cc2ccc(F)cc2)c2cc(F)ccc2c1=O | 151 to 152 |
| C(=Cc1cccnc1)c1ccc(C2OCCO2)cc1 | 117 to 119 |
| O=C(Nc1ccc2ccc(Cl)nc2n1)c1ccc(Cl)cc1 | 268 |
| CCCCCCC(C)(C)c1ccc([C@@H]2CC(=O)C[C@@H](O)C2)c(OCc2ccccc2)c1 (relative stereo) | 95 |
| O=C(Nc1cc(N2CCNCC2)cc(C(F)(F)F)c1)c1cccc2cc(Oc3ccnc(NC(=O)C4CC4)c3)ccc12 | 244 to 247 |
| CNC(=O)N1CCN(C(=O)Cc2ccc(Cl)c(Cl)c2)C(CN2CCC(O)C2)C1 (stereo unspecified) | 57 |

| Structure (SMILES) | melting point [°C] |
| --- | --- |
| CCOCc1nc2c(N)nc3ccccc3c2n1NCCCNC(C)=O | 178 to 181 |
| CCCCCNC(CCCCC)=C1C(=O)ON=C1C | 36 |
| CCC(Cl)C(=O)Nc1c(C(=O)CC(=O)Nc2nccs2)cccc1C(F)(F)F (stereo unspecified) | 170 |
| O=C(O)c1ccc(C(c2cc(F)ccc2F)S(=O)(=O)c2ccc(Cl)cc2)nc1 (stereo unspecified) | > 230 |
| NS(=O)(=O)c1ccc(N2N=C(C(F)(F)F)CC2c2ccc(F)cc2F)cc1 (stereo unspecified) | 161 to 162 |
| COCCN1CCSc2ccc(Nc3ncc(Cl)c(N[C@@H]4CCCC[C@H]4NS(C)(=O)=O)n3)cc2C1 | 140 to 143 |
| CCOc1ccc(OCc2ccccc2OCc2nc(-c3ccccc3)oc2C)cc1CCC(=O)O | 146 to 147 |
| COc1cc(S(N)(=O)=O)cnc1Cl | 156 to 158 |
| COc1cccc([C@H]2O[C@H](CC(=O)Nc3cc(CCC(=O)O)ccc3OC(C)C)C(=O)N(CC(C)(C)CO)c3ccc(Cl)cc32)c1OC | 133 to 136 |
| Cc1nc2cnccc2n1-c1ccc(COc2ccccc2C(=O)O)cc1 | 217 to 219 |
| CCOC(=O)C1CN(S(=O)(=O)c2ccc3cc(Br)ccc3c2)CCN1C(=O)C1CCN(c2ccncc2)CC1 (stereo unspecified) | 117 to 121 |
| CCOC(=O)c1cnc2ccc(Oc3ccccc3)nc2c1Cl | 133 to 137 |
| CS(=O)(=O)OCCc1ccc([N+](=O)[O-])cc1COS(C)(=O)=O | 83 to 85 |
| Nc1c(C(=O)O)cccc1-c1ccc(CCc2ccc(Cl)c(C(F)(F)F)c2)cc1 | 150 to 152 |
| O=C(NCC12CC3CC(CC(C3)C1)C2)c1cc(-c2ccccc2C(=O)O)ccc1Cl | 228 to 230 |
| CS(=O)(=O)C(=C1CN(C(c2ccccc2)c2ccccc2)C1)c1cc(F)cc(F)c1 | 172 |
| CCC(=NO)c1ccccc1O | 88 to 90 |
| O=C1C2CCCCN2C(=O)N1c1ccccc1 (stereo unspecified) | 186 to 187 |
| Cc1ccc(C(=O)c2cccc(C)c2N)cc1 | 77 to 78 |
